Data reported in ChEMBL document CHEMBL5316327, “Design and Synthesis of Orally Active Quinolyl Pyrazinamides as Sigma 2 Receptor Ligands for the Treatment of Pancreatic Cancer” (J Med Chem, 2023).
Activity calls are given as the source filed them. No cut-off for these calls is given here.

Key:
MIA PaCa-2 [1] = assay: Induction of apoptosis in human MIA PaCa-2 cells assessed as viable cells at 1.0 uM measured after 48 hrs by Annexin V-Alexa Fluor 488/propidium iodide staining based flow cytometry (reference value: 82.23%); format: functional; conditions: read-out: Activity
D(1A) dopamine receptor = D(1A) dopamine receptor (Homo sapiens, UniProt P21728); assay: Binding affinity to dopamine D1 receptor (unknown origin) assessed as inhibition constant
D(3) dopamine receptor = D(3) dopamine receptor (Homo sapiens, UniProt P35462); assay: Binding affinity to dopamine D3 receptor (unknown origin) assessed as inhibition constant
[2] = biological target: Muscarinic acetylcholine receptor M2 (Homo sapiens, UniProt P08172); assay: Binding affinity to M2 receptor (unknown origin) assessed as inhibition constant
Histamine H3 receptor = Histamine H3 receptor (Homo sapiens, UniProt Q9Y5N1); assay: Binding affinity to histamine H3 receptor (unknown origin) assessed as inhibition constant
[3] = biological target: Alpha-2A adrenergic receptor (Homo sapiens, UniProt P08913); assay: Binding affinity to alpha2A receptor (unknown origin) assessed as inhibition constant
[4] = Metabolic stability in human liver microsomes assessed as half life at 10 uM measured upto 60 mins in presence of NADPH by LC-MS/MS analysis; format: ADME, Microsome; conditions: liver microsomes
MIA PaCa-2 [5] = assay: Upregulation of GRP78 in human MIA PaCa-2 cells at 10 uM measured after 24 hrs by Western blot analysis; format: functional, cell-based
MIA PaCa-2 [6] = assay: Induction of apoptosis in human MIA PaCa-2 cells assessed as early apoptotic cells at 5.0 uM measured after 48 hrs by Annexin V-Alexa Fluor 488/propidium iodide staining based flow cytometry (reference value: 4.11%); format: functional
MIA PaCa-2 [7] = assay: Induction of apoptosis in human MIA PaCa-2 cells assessed as late apoptotic cells at 1.0 uM measured after 48 hrs by Annexin V-Alexa Fluor 488/propidium iodide staining based flow cytometry (reference value: 6.63%); format: functional
MIA PaCa-2 [8] = assay: Induction of apoptosis in human MIA PaCa-2 cells assessed as late apoptotic cells at 10.0 uM measured after 48 hrs by Annexin V-Alexa Fluor 488/propidium iodide staining based flow cytometry (reference value: 6.63%); format: functional
HCT-116 [9] = assay: Induction of apoptosis in human HCT-116 cells assessed as early apoptotic cells at 1.0 uM measured after 48 hrs by Annexin V-Alexa Fluor 488/propidium iodide staining based flow cytometry (reference value: 2.77%); format: functional
HCT-116 [10] = assay: Induction of apoptosis in human HCT-116 cells assessed as early apoptotic cells at […] measured after 48 hrs by Annexin V-Alexa Fluor 488/propidium iodide staining based flow cytometry (reference value: 2.77%); format: functional; conditions: dose 2.5 µM
HCT-116 [11] = assay: Induction of apoptosis in human HCT-116 cells assessed as necrotic cells at 5.0 uM measured after 48 hrs by Annexin V-Alexa Fluor 488/propidium iodide staining based flow cytometry (reference value: 9.06%); format: functional
HCT-116 [12] = assay: Induction of apoptosis in human HCT-116 cells assessed as necrotic cells at 10.0 uM measured after 48 hrs by Annexin V-Alexa Fluor 488/propidium iodide staining based flow cytometry (reference value: 9.06%); format: functional
MIA PaCa-2 [13] = assay: Induction of cell cycle arrest in human MIA PaCa-2 cells assessed as accumulation of cells in G0/G1 phase at 1 uM measured after 24 hrs by propidium iodide staining-based flow cytometric analysis (reference value: 53%); format: functional
MIA PaCa-2 [14] = assay: Induction of cell cycle arrest in human MIA PaCa-2 cells assessed as accumulation of cells in G0/G1 phase at […] measured after 24 hrs by propidium iodide staining-based flow cytometric analysis (reference value: 53%); format: functional; conditions: dose 2.5 µM
MIA PaCa-2 [15] = assay: Induction of cell cycle arrest in human MIA PaCa-2 cells assessed as accumulation of cells in G0/G1 phase at 5 uM measured after 24 hrs by propidium iodide staining-based flow cytometric analysis (reference value: 53%); format: functional
MIA PaCa-2 [16] = assay: Induction of cell cycle arrest in human MIA PaCa-2 cells assessed as accumulation of cells in S phase at 5 uM measured after 24 hrs by propidium iodide staining-based flow cytometric analysis (reference value: 31%); format: functional
MIA PaCa-2 [17] = assay: Induction of cell cycle arrest in human MIA PaCa-2 cells assessed as accumulation of cells in G2/M phase at 10 uM measured after 24 hrs by propidium iodide staining-based flow cytometric analysis (reference value: 16%); format: functional
HCT-116 [18] = assay: Induction of cell cycle arrest in human HCT-116 cells assessed as accumulation of cells in G0/G1 phase at […] measured after 24 hrs by propidium iodide staining-based flow cytometric analysis (reference value: 43%); format: functional; conditions: dose 2.5 µM
HCT-116 [19] = assay: Induction of cell cycle arrest in human HCT-116 cells assessed as accumulation of cells in G2/M phase at 10 uM measured after 24 hrs by propidium iodide staining-based flow cytometric analysis (reference value: 10%); format: functional
[20] = Half life in CD-1 mouse plasma at 20 mg/kg, po; format: ADME, organism-based
[21] = Volume of distribution at steady state in CD-1 mouse plasma at 10 mg/kg, iv; format: ADME, organism-based; conditions: read-out: Vdss
[22] = Apparent volume of distribution during terminal phase in CD-1 mouse plasma at 20 mg/kg, po; format: ADME, organism-based; conditions: read-out: Vz/F
Panc02 [23] = assay: Antitumor activity against mouse Panc02 cells xenografted in C57BL/6 mouse model assessed as delayed tumor growth at 60 mg/kg, ip administered daily for 28 days by caliper method; format: functional, organism-based; conditions: time 28.0 day
Panc02 [24] = assay: Antitumor activity against mouse Panc02 cells xenografted in C57BL/6 mouse model assessed as delayed tumor growth at 30 mg/kg, po administered daily for 32 days in presence of copper sulfate by caliper method; format: functional, organism-based; conditions: time 32.0 day
[25] = Toxicity in C57BL/6 mouse assessed as effect on body weight at 30 mg/kg, po administered for 32 days and measured on day 4,7 in presence of copper sulfate; format: organism-based; conditions: in vivo, 768 h, time 32 day
MIA PaCa-2 [26] = assay: Additive cytotoxicity against human MIA PaCa-2 cells at upto 1 uM measured after 7 days in presence of ammonium tetrathiomolybdate by crystal violet staining based analysis; format: functional, cell-based; conditions: time 7.0 day
HCT-116 [27] = assay: Synergistic cytotoxicity against human HCT-116 cells at upto 1 uM measured after 6 days in presence of gold acetate by crystal violet staining based analysis; format: functional, cell-based; conditions: time 6.0 day
HCT-116 [28] = assay: Synergistic cytotoxicity against human HCT-116 cells at upto 1 uM measured after 6 days in presence of silver acetate by crystal violet staining based analysis; format: functional, cell-based; conditions: time 6.0 day
MIA PaCa-2 [29] = assay: Upregulation of LC3-B expression in human MIA-PaCa-2 cells measured after 72 hrs; format: functional, cell-based; conditions: dose 1-5 µM
MIA PaCa-2 [30] = assay: Synergistic ferroptosis activity in human MIA-PaCa-2 cells at upto 1 uM measured after 7 days in presence of erastin by crystal violet staining based analysis; format: functional, cell-based; conditions: time 7.0 day
MIA PaCa-2 [31] = assay: Synergistic ferroptosis activity in human MIA-PaCa-2 cells at upto 1 uM measured after 7 days in presence of chloroquine by crystal violet staining based analysis; format: functional, cell-based; conditions: time 7.0 day
MIA PaCa-2 [32] = assay: Additive cytotoxicity in human MIA PaCa-2 cells at upto 1 uM measured after 24 hrs in presence of roluperidone; format: functional, cell-based
Panc02 [33] = assay: cells; conditions: Mus musculus, Panc02, 72 h

Chain of Histamine H3 receptor (Q9Y5N1 whole entry): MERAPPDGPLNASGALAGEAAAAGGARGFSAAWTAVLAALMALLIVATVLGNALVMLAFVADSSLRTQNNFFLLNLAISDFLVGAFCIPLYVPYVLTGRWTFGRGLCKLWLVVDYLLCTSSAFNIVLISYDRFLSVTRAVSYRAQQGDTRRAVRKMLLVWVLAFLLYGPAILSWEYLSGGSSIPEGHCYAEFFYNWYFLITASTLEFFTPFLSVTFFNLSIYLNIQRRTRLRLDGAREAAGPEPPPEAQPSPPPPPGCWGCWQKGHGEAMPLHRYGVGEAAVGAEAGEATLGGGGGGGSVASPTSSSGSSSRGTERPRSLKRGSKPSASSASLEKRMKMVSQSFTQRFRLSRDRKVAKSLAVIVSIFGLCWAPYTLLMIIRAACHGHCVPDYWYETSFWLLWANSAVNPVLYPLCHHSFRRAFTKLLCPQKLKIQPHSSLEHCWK
Chain of Muscarinic acetylcholine receptor M2 (P08172 whole entry): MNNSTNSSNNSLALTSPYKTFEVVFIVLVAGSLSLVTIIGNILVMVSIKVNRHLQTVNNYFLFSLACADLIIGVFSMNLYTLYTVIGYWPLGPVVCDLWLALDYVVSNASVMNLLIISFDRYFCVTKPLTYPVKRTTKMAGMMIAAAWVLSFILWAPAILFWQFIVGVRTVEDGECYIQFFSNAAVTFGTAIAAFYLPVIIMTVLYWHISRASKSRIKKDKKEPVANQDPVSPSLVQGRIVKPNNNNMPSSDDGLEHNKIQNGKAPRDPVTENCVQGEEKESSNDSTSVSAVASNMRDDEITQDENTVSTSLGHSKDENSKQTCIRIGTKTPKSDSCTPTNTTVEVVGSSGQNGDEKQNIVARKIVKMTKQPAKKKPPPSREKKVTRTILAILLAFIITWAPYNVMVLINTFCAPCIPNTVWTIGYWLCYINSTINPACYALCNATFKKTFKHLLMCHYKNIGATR
Chain of Alpha-2A adrenergic receptor (P08913 whole entry): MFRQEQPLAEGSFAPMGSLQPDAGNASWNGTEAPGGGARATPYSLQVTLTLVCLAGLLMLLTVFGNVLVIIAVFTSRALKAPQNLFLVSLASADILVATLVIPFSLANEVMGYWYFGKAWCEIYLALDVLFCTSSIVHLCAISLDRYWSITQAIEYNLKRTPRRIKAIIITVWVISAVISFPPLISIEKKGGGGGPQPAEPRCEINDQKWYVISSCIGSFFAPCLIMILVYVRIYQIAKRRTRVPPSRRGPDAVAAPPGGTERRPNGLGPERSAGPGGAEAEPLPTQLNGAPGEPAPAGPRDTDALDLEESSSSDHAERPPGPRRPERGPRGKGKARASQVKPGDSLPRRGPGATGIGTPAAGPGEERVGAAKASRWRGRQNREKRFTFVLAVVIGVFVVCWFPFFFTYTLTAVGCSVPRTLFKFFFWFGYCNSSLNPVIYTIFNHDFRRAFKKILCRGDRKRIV
Chain of D(1A) dopamine receptor (P21728 whole entry): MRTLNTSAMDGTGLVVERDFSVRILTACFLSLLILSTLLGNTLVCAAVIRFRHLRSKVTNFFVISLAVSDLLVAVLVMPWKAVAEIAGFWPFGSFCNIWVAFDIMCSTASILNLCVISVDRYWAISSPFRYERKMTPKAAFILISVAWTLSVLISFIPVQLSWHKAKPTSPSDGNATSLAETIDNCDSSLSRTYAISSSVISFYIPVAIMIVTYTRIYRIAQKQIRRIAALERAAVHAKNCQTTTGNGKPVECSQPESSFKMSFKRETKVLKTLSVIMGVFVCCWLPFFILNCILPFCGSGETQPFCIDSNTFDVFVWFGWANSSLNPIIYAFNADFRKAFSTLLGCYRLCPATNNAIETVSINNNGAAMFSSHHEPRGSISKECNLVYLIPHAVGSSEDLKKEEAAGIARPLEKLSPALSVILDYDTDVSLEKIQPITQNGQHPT
Chain of D(3) dopamine receptor (P35462 whole entry): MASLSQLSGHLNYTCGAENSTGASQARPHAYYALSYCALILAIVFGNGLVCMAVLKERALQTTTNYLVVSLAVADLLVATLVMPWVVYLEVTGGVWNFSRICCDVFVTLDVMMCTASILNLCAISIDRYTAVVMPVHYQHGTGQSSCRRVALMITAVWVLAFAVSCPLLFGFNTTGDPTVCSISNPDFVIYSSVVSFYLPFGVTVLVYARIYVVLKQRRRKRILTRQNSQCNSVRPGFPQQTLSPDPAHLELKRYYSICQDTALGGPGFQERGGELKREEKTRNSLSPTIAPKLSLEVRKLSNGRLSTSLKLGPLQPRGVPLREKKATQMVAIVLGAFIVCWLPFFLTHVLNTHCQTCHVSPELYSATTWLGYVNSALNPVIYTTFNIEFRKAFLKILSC

Ki (D(1A) dopamine receptor): 1440 nM | Ki (D(3) dopamine receptor): 638 nM | Ki [2]: 680 nM | Ki (Histamine H3 receptor): 1180 nM | Ki [3]: 2740 nM | half-life at 10 µM [4]: > 1 h | half-life [20]: 6.1 h | Vd [21]: 21.4 L/kg | Vd/F [22]: 51.8 L/kg | IC50 (Panc02 [33]): 3700 nM
SMILES: CCN(CC)CCCC(C)Nc1cnc(C(=O)Nc2ccc(Cl)c3cccnc23)cn1 (stereo unspecified)
viability at 1 µM (MIA PaCa-2 [1]): 54.6% | Activity (MIA PaCa-2 [5]): Active | Activity (MIA PaCa-2 [6]): 22.26% | Activity (MIA PaCa-2 [7]): 30.8% | Activity (MIA PaCa-2 [8]): 53.96% | Activity (HCT-116 [9]): 2.38% | Activity (HCT-116 [10]): 8.77% | Activity (HCT-116 [11]): 5.1% | Activity (HCT-116 [12]): 2.37% | Activity (MIA PaCa-2 [13]): 46% | Activity (MIA PaCa-2 [14]): 49% | Activity (MIA PaCa-2 [15]): 61% | Activity (MIA PaCa-2 [16]): 22% | Activity (MIA PaCa-2 [17]): 17% | Activity (HCT-116 [18]): 48% | Activity (HCT-116 [19]): 22% | Activity (Panc02 [23]): Active | Activity (Panc02 [24]): Active | Activity [25]: Toxic | Activity (MIA PaCa-2 [26]): inactive | Activity (HCT-116 [27]): inactive | Activity (HCT-116 [28]): inactive | Activity (MIA PaCa-2 [29]): Dose-Dependent Effect | Activity (MIA PaCa-2 [30]): Active | Activity (MIA PaCa-2 [31]): Active | Activity (MIA PaCa-2 [32]): Active
